Reference: patent US10273226B2, “Pyrazolyl-heteroarylamides as pesticides” (Bayer Animal Health GmbH, priority 2014, dated 2019)

What was measured:
Type in all cases: in vivo
Tetranychus urticae = Tetranychus urticae spray test, OP-resistant; details: application rate 100 g/ha; after 6 days
Description: Tetranychus urticae—Spray Test, OP-Resistant
(§1) To produce an appropriate active ingredient formulation, 1 part by weight of active ingredient is dissolved using the specified parts by weight of solvent and made up with water containing an emulsifier concentration of 1000 ppm until the desired concentration is attained. To produce further test concentrations, the preparation is diluted with emulsifier-containing water.
Discs of bean leaves (Phaseolus vulgaris) infested by all stages of the greenhouse red spider mite (Tetranychus urticae) are sprayed with an active ingredient formulation of the desired concentration.
After 6 days, efficacy in % is determined. 100% means that all the spider mites have been killed; 0% means that none of the spider mites have been killed.

Boophilus microplus = Boophilus microplus injection test; details: application rate 20 μg/animal; injection into abdomen; assessed after 7 days
Description: Boophilus microplus—Injection Test
(§2) Solvent: dimethyl sulphoxide
To produce an appropriate active ingredient formulation, 10 mg of active ingredient are mixed with 0.5 ml of solvent and the concentrate is diluted with solvent to the desired concentration.
1 μl of the active ingredient solution is injected into the abdomen of 5 engorged adult female cattle ticks (Boophilus microplus). The animals are transferred into dishes and kept in a climate-controlled room.
Efficacy is assessed after 7 days by laying of fertile eggs. Eggs which are not visibly fertile are stored in a climate-controlled cabinet until the larvae hatch after about 42 days. An efficacy of 100% means that none of the ticks has laid any fertile eggs; 0% means that all the eggs are fertile.

Ctenocephalides felis = Ctenocephalides felis oral test; details: application rate 100 ppm in citrated cattle blood; after 2 days
Description: Ctenocephalides felis—Oral Test
as §2
For the purpose of producing an appropriate active ingredient formulation, 10 mg of active ingredient are mixed with 0.5 ml of dimethyl sulphoxide. Dilution with citrated cattle blood gives the desired concentration.
About 20 unfed adult cat fleas (Ctenocephalides felis) are placed into a chamber which is closed at the top and bottom with gauze. A metal cylinder whose bottom end is closed with parafilm is placed onto the chamber. The cylinder contains the blood/active ingredient preparation, which can be imbibed by the fleas through the parafilm membrane.
After 2 days, the kill in % is determined. 100% means that all of the fleas have been killed; 0% means that none of the fleas have been killed.

Phaedon cochleariae = Phaedon cochleariae spray test; details: application rate 100 g/ha; larvae; after 7 days
Description: Phaedon cochleariae—Spray Test
as §1
Discs of Chinese cabbage leaves (Brassica pekinensis) are sprayed with an active ingredient formulation of the desired concentration and, after drying, populated with larvae of the mustard beetle (Phaedon cochleariae).
After 7 days, efficacy in % is determined. 100% means that all the beetle larvae have been killed; 0% means that no beetle larvae have been killed.

Spodoptera frugiperda = Spodoptera frugiperda spray test; details: caterpillars, after 7 days
Description: Spodoptera frugiperda—Spray Test
as §1
Leaf discs of maize (Zea mays) are sprayed with an active ingredient formulation of the desired concentration and, after drying, populated with caterpillars of the armyworm (Spodoptera frugiperda).
After 7 days, efficacy in % is determined. 100% means that all the caterpillars have been killed; 0% means that no caterpillars have been killed.

Lucilia cuprina = Lucilia cuprina test; details: application rate 100 ppm; L1 larvae; after 2 days
Description: as §2
To produce an appropriate active ingredient formulation, 10 mg of active ingredient are mixed with 0.5 ml of dimethyl sulphoxide, and the concentrate is diluted with water to the desired concentration.
About 20 L1 larvae of the Australian sheep blowfly (Lucilia cuprina) are transferred into a test vessel containing minced horsemeat and the active ingredient preparation of the desired concentration.
After 2 days, the kill in % is determined. 100% means that all the larvae have been killed and 0% means that none of the larvae have been killed.

Rhipicephalus sanguineus = Rhipicephalus sanguineus in vitro contact test with adult brown dog ticks; details: after 48 h, ticks dead or moribund
Description: Rhipicephalus sanguineus—In Vitro Contact Tests with Adult Brown Dog Ticks
For the coating of the test tubes, 9 mg of active ingredient are first dissolved in 1 ml of acetone p.a. and then diluted to the desired concentration with acetone p.a. 250 μl of the solution are distributed homogeneously on the inner walls and base of a 25 ml test tube by turning and rocking on an orbital shaker (rocking rotation at 30 rpm for 2 h). With 900 ppm active ingredient solution and internal surface 44.7 cm^2, given homogeneous distribution, an area-based dose of 5 μg/cm^2 is achieved.
After the solvent has evaporated off, the tubes are populated with 5-10 adult dog ticks (Rhipicephalus sanguineus), sealed with a perforated plastic lid and incubated in a horizontal position in the dark at room temperature and ambient humidity. After 48 h, efficacy is determined. To this end, the ticks are knocked to the floor of the tube and incubated on a hotplate at 45-50° C. for not more than 5 min. Ticks which remain motionless on the floor or move in such an uncoordinated manner that they are unable to deliberately avoid the heat by climbing upwards are considered to be dead or moribund.
An efficacy of 100% means that all the ticks were dead or moribund. 0% efficacy means that none of the ticks had been harmed.

[1] = application rate 5 μg/cm^2 (500 g/ha)

| SMILES | efficacy (laying of fertile eggs) (Boophilus microplus) [%] | efficacy (kill in %) (Ctenocephalides felis) [%] | efficacy (kill in %) (Lucilia cuprina) [%] | further results |
| --- | --- | --- | --- | --- |
| CC(C(=O)Nc1cc(-c2cnn(-c3c(C(F)(F)F)c(C(F)(F)C(F)(F)F)nn3C)c2)ccc1F)c1ccccc1 (racemic) [Example 1-108] | 100 | – | – | efficacy (Tetranychus urticae): 100% |
| Cn1nc(C(F)(F)C(F)(F)F)c(C(F)(F)F)c1-n1cc(-c2ccc(F)c(NC(=O)C(c3ccccc3)C3CCCC3)c2)cn1 (racemic) [Example 1-109] | 80 | – | – | – |
| CC(Oc1ccccc1)C(=O)Nc1cc(-c2cnn(-c3c(C(F)(F)F)c(C(F)(F)C(F)(F)F)nn3C)c2)ccc1F (racemic) [Example 1-123] | 100 | 90 | – | – |
| CCC(C(=O)Nc1cc(-c2cnn(-c3c(C(F)(F)F)c(C(F)(F)C(F)(F)F)nn3C)c2)ccc1F)c1ccccc1 (racemic) [Example 1-124] | 100 | – | – | – |
| Cn1nc(C(F)(F)C(F)(F)F)c(C(F)(F)F)c1-n1cc(-c2cccc(NC(=O)c3ncccc3Cl)c2)cn1 [Example 1-005] | 100 | 100 | 100 | efficacy (Phaedon cochleariae): 100%; efficacy (Spodoptera frugiperda; application rate 100 g/ha): 100% |
| CCC(=O)Nc1cccc(-c2cnn(-c3c(C(F)(F)F)c(C(F)(F)C(F)(F)F)nn3C)c2)c1 [Example 1-008] | 100 | 100 | 100 | efficacy (Rhipicephalus sanguineus; [1]): 100% |
| Cn1nc(C(F)(F)C(F)(F)F)c(C(F)(F)F)c1-n1cc(-c2cccc(NC(=O)c3ncccc3Cl)c2F)cn1 [Example 1-020] | 100 | 95 | 90 | – |
| Cn1nc(C(F)(F)C(F)(F)F)c(C(F)(F)F)c1-n1cc(-c2ccc(Cl)c(NC(=O)c3ncccc3Cl)c2)cn1 [Example 1-021] | – | 80 | – | – |
| Cn1nc(C(F)(F)C(F)(F)F)c(C(F)(F)F)c1-n1cc(-c2cccc(NC(=O)C3(Cl)CC3)c2)cn1 [Example 1-030] | 100 | 100 | 100 | efficacy (Rhipicephalus sanguineus; [1]): 80%; efficacy (Spodoptera frugiperda; application rate 500 g/ha): 100% |
| Cn1nc(C(F)(F)C(F)(F)F)c(C(F)(F)F)c1-n1cc(-c2ccc(F)c(NC(=O)c3ccc(F)c(C(F)(F)F)c3)c2)cn1 [Example 1-050] | 100 | – | 100 | efficacy (Phaedon cochleariae): 100% |
| Cn1nc(C(F)(F)C(F)(F)F)c(C(F)(F)F)c1-n1cc(-c2ccc(F)c(NC(=O)C3(C)CCCCC3)c2)cn1 [Example 1-053] | – | – | – | efficacy (Tetranychus urticae): 100% |
| Cn1nc(C(F)(F)C(F)(F)F)c(C(F)(F)F)c1-n1cc(-c2ccc(F)c(NC(=O)c3cccc(C(F)(F)F)c3)c2)cn1 [Example 1-057] | 100 | 95 | 100 | efficacy (Spodoptera frugiperda; application rate 100 g/ha): 83% |
| Cc1c(C(=O)Nc2cc(-c3cnn(-c4c(C(F)(F)F)c(C(F)(F)C(F)(F)F)nn4C)c3)ccc2F)oc2ccccc12 [Example 1-059] | 100 | – | – | – |
| COCCC(=O)Nc1cc(-c2cnn(-c3c(C(F)(F)F)c(C(F)(F)C(F)(F)F)nn3C)c2)ccc1F [Example 1-061] | 100 | 100 | – | efficacy (Rhipicephalus sanguineus; [1]): 80% |
| Cc1cc(C(F)F)n2nc(C(=O)Nc3cc(-c4cnn(-c5c(C(F)(F)F)c(C(F)(F)C(F)(F)F)nn5C)c4)ccc3F)nc2n1 [Example 1-062] | 100 | 100 | 100 | – |
| Cn1nc(C(F)(F)C(F)(F)F)c(C(F)(F)F)c1-n1cc(-c2ccc(F)c(NC(=O)c3cccc(F)c3F)c2)cn1 [Example 1-070] | 100 | 100 | 100 | efficacy (Rhipicephalus sanguineus; [1]): 80% |
| Cn1nc(C(F)(F)C(F)(F)F)c(C(F)(F)F)c1-n1cc(-c2ccc(F)c(NC(=O)c3ccccc3OC(F)(F)F)c2)cn1 [Example 1-074] | 90 | – | – | – |
| Cn1nc(C(F)(F)C(F)(F)F)c(C(F)(F)F)c1-n1cc(-c2ccc(F)c(NC(=O)CC(C)(C)C)c2)cn1 [Example 1-079] | 100 | 95 | 100 | – |
| CCOCC(C)(C)C(=O)Nc1cc(-c2cnn(-c3c(C(F)(F)F)c(C(F)(F)C(F)(F)F)nn3C)c2)ccc1F [Example 1-082] | 100 | 90 | – | – |
| Cc1ccc(C(=O)Nc2cc(-c3cnn(-c4c(C(F)(F)F)c(C(F)(F)C(F)(F)F)nn4C)c3)ccc2F)cc1C [Example 1-090] | – | – | – | efficacy (Phaedon cochleariae): 100%; efficacy (Rhipicephalus sanguineus; [1]): 100% |
| Cn1nc(C(F)(F)C(F)(F)F)c(C(F)(F)F)c1-n1cc(-c2ccc(F)c(NC(=O)CSc3ccccc3)c2)cn1 [Example 1-107] | 100 | – | – | – |
| Cc1ccc(C2(C(=O)Nc3cc(-c4cnn(-c5c(C(F)(F)F)c(C(F)(F)C(F)(F)F)nn5C)c4)ccc3F)CCCCC2)cc1 [Example 1-111] | 80 | – | – | – |
| Cc1cn(CC(=O)Nc2cc(-c3cnn(-c4c(C(F)(F)F)c(C(F)(F)C(F)(F)F)nn4C)c3)ccc2F)nc1C(F)(F)F [Example 1-112] | 95 | – | – | – |
| Cn1nc(C(F)(F)C(F)(F)F)c(C(F)(F)F)c1-n1cc(-c2ccc(F)c(NC(=O)COCc3ccccc3)c2)cn1 [Example 1-114] | 100 | – | – | – |
| Cn1nc(C(F)(F)C(F)(F)F)c(C(F)(F)F)c1-n1cc(-c2ccc(F)c(NC(=O)C3(c4ccc(Cl)cc4)CCC3)c2)cn1 [Example 1-115] | 100 | 90 | 80 | – |
| Cn1nc(C(F)(F)C(F)(F)F)c(C(F)(F)F)c1-n1cc(-c2ccc(F)c(NC(=O)Cc3cccc(C(F)(F)F)c3)c2)cn1 [Example 1-116] | 100 | 100 | 100 | efficacy (Phaedon cochleariae): 100%; efficacy (Spodoptera frugiperda; application rate 100 g/ha): 83% |
| Cn1nc(C(F)(F)C(F)(F)F)c(C(F)(F)F)c1-n1cc(-c2ccc(F)c(NC(=O)Cc3cccs3)c2)cn1 [Example 1-117] | 100 | 100 | 100 | efficacy (Rhipicephalus sanguineus; [1]): 100%; efficacy (Spodoptera frugiperda; application rate 100 g/ha): 100% |
| Cn1nc(C(F)(F)C(F)(F)F)c(C(F)(F)F)c1-n1cc(-c2ccc(F)c(NC(=O)CCc3ccccc3)c2)cn1 [Example 1-125] | 100 | – | – | – |
| Cn1nc(C(F)(F)C(F)(F)F)c(C(F)(F)F)c1-n1cc(-c2cnc(Cl)c(NC(=O)c3ncccc3Cl)c2)cn1 [Example 2-002] | 100 | – | – | – |
| COc1cc(C(=O)Nc2cc(-c3cnn(-c4c(C(F)(F)F)c(C(F)(F)C(F)(F)F)nn4C)c3)cnc2Cl)ccc1F [Example 2-007] | 100 | 100 | 100 | efficacy (Phaedon cochleariae): 100%; efficacy (Rhipicephalus sanguineus; application rate 1 μg/cm^2 (100 g/ha)): 80% |
